{"source": "paper PMC11091828", "about": "(Journal of medicinal chemistry, 2023)", "key": {"hMOR": {"target": "hMOR (Homo sapiens, UniProt P35372)", "sequence (P35372 whole entry)": "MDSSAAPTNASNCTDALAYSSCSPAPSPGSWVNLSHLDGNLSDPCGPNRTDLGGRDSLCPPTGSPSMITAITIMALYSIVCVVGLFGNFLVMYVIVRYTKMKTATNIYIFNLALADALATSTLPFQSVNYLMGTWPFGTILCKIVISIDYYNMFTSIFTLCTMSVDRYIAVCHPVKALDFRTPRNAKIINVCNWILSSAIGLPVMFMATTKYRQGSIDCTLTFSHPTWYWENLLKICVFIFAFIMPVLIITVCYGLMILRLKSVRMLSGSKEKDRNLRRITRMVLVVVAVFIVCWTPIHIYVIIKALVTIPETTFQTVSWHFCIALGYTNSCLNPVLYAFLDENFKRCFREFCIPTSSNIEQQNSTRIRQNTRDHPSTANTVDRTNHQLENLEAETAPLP", "assay": "hMOR radioligand binding, competition with [3H]-DAMGO, HEK293 membranes", "conditions": "for improved MOR affinity with respect to 2-THP unsubstituted analog: 122 vs 115, 121 vs 112"}, "mMOR [1]": {"target": "T1, mMOR (Mus musculus, UniProt P42866)", "T1 sequence (P42866 whole entry)": "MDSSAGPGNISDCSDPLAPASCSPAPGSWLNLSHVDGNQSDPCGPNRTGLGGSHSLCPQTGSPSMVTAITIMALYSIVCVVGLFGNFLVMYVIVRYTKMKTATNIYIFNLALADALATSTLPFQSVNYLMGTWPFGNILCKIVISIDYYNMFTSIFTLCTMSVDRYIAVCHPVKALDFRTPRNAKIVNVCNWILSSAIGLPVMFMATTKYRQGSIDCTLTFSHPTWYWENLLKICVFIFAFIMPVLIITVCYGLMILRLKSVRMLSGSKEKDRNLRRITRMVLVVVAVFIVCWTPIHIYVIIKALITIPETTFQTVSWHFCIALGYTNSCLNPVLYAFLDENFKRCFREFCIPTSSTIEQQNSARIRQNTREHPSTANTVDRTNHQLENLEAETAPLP", "assay": "BRET Nb33 recruitment at MOR, HEK 293T cells", "type": "cell-based", "conditions": "read-out: MOR Nb33 recruitment Emax ± SEM"}, "mMOR [2]": {"target": "T1, mMOR", "assay": "BRET arrestin-3 recruitment at MOR with overexpressed GRK2, HEK 293T cells", "type": "cell-based", "conditions": "NA = No Activity at the highest tested concentration"}, "hD3R [3]": {"target": "T2, hD3R (Homo sapiens, UniProt P35462)", "T2 sequence (P35462 whole entry)": "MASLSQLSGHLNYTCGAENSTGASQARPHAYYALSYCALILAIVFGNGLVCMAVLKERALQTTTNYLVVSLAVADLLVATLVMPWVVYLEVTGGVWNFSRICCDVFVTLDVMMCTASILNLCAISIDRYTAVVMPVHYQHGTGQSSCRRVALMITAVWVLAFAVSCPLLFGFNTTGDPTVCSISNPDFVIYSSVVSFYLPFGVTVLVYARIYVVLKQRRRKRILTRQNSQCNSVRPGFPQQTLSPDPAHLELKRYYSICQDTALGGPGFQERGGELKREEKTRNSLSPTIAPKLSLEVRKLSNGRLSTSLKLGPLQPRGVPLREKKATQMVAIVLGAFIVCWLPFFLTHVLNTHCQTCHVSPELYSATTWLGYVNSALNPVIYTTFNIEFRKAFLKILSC", "type": "binding", "conditions": "from Ki values"}, "hD3R [4]": {"target": "T2, hD3R", "assay": "BRET D3R-mediated GαoA G protein activation", "type": "cell-based", "conditions": "agonist mode; NA = No Activity at the highest tested concentration"}, "mMOR [5]": {"target": "T1, mMOR", "assay": "BRET MOR-mediated Gαi2 G protein activation", "type": "cell-based", "conditions": "NA = No Activity at the highest tested concentration"}}}
{"compound": "CN(C)C(=O)C(CCN1C[C@H](O)CC1=CN1CCN(c2cccc(Cl)c2Cl)CC1)(c1ccccc1)c1ccccc1", "note": "(mixture of isomers) [compound 26, (R)-4-(2-((4-(2,3-Dichlorophenyl)piperazin-1-yl)methylene)-4-hydroxypyrrolidin-1-yl)-N,N-dimethyl-2,2-diphenylbutanamide]", "values": [{"measurement": "Ki", "setting": "hMOR", "result": 23.8, "unit": "nM"}]}
{"compound": "CCCN(CCC(C(=O)N(C)C)(c1ccccc1)c1ccccc1)[C@@H]1C[C@H]1c1ccc(Cl)cc1", "note": "(relative stereo) [compound 80, rel-trans-4-((2-(4-Chlorophenyl)cyclopropyl)(propyl)amino)-N,N-dimethyl-2,2-diphenylbutanamide]", "values": [{"measurement": "Emax", "setting": "mMOR [1]", "result": "27.7 ± 4.9", "unit": "%"}]}
{"compound": "COc1ccccc1[C@@H]1C[C@H]1NCCC(C(=O)N(C)C)(c1ccccc1)c1ccccc1", "note": "(relative stereo) [compound 84, rel-trans-4-((2-(2-Methoxyphenyl)cyclopropyl)amino)-N,N-dimethyl-2,2-diphenylbutanamide]", "values": [{"measurement": "Emax", "setting": "mMOR [1]", "result": "31 ± 2.3", "unit": "%"}]}
{"compound": "Clc1ccc([C@@H]2C[C@H]2NCCC2(c3ccccn3)CCOC3(CCCC3)C2)cc1", "note": "(relative stereo) [compound 121, rel-trans-2-(4-Chlorophenyl)-N-(2-(9-(pyridin-2-yl)-6-oxaspiro[4.5]decan-9-yl)ethyl)cyclopropan-1-amine]", "values": [{"measurement": "improved MOR affinity with respect to 2-THP unsubstituted analog", "setting": "hMOR", "result": "> 10", "unit": "fold"}, {"measurement": "MOR arr3 recruitment (+ GRK2) pEC50 ± SEM", "setting": "mMOR [2]", "result": "6.58 ± 0.08"}, {"measurement": "D3R selectivity over D2R", "setting": "hD3R [3]", "result": 15, "unit": "fold"}]}
{"compound": "CCc1cc(Cl)c(OC)c(N2CCN(C[C@@H]3C[C@@H](O)CN3CCC(C(=O)N(C)C)(c3ccccc3)c3ccccc3)CC2)c1", "note": "[compound 34, 4-((2S,4R)-2-((4-(3-Chloro-5-ethyl-2-methoxyphenyl)piperazin-1-yl)methyl)-4-hydroxypyrrolidin-1-yl)-N,N-dimethyl-2,2-diphenylbutanamide]", "values": [{"measurement": "D3R GoA activation pEC50 ± SEM", "setting": "hD3R [4]", "result": "7.60 ± 0.99"}]}
{"compound": "CN(C)C(=O)C(CCN1C[C@H](F)C[C@H]1C(=O)NCCCCN1CCN(c2cccc(C(F)(F)F)n2)CC1)(c1ccccc1)c1ccccc1", "note": "[compound 56, (2S,4R)-1-(4-(Dimethylamino)-4-oxo-3,3-diphenylbutyl)-4-fluoro-N-(4-(4-(6-(trifluoromethyl)pyridin-2-yl)piperazin-1-yl)butyl)pyrrolidine-2-carboxamide]", "values": [{"measurement": "MOR Gi2 activation pEC50 ± SEM", "setting": "mMOR [5]", "result": "5.94 ± 0.08"}]}
{"compound": "FC(F)(F)c1cccc(N2CCN(CCC3(c4ccccn4)CCOC4(CCCC4)C3)CC2)n1", "note": "(stereo not drawn) [compound 122, 1-(2-(9-(Pyridin-2-yl)-6-oxaspiro[4.5]decan-9-yl)ethyl)-4-(6-(trifluoromethyl)pyridin-2-yl)piperazine]", "values": [{"measurement": "improved MOR affinity with respect to 2-THP unsubstituted analog", "setting": "hMOR", "result": "> 10", "unit": "fold"}]}
